Laboratory results from patent US8569495B2, “Anthelmintic agents and their use” (Intervet International B.V., priority 2007, dated 2013).
Read-outs that look alike come from different tables or passages of the source.

How the values were obtained:
[1] = test system: Haemonchus contortus (L4), isolate resistant to benzimidazoles and ivermectin and anthelmintic-sensitive isolate; assay: In vitro resistance-breaking activity against Haemonchus contortus L4, resistant versus sensitive isolate (MEC); details: isolate resistant to benzimidazoles and ivermectin vs sensitive isolate
Description: Anthelmintic resistance-breaking effects of compounds of this invention were tested in vitro using larval stage 4 (“L4”) of the parasitic nematode species Haemonchus contortus (Barber's pole worm in ruminants). One isolate of Haemonchus contortus with a resistance to benzimidazoles and ivermectin was tested in comparison to the anthelmintic-sensitive isolate of Haemonchus contortus. When conducting these experiments, various concentrations of the compounds were incubated in 96-well microtiter plates. Parasites were then distributed at 20 larvae per well. The anthelmintic effects were classified by microscopic examination. The microscopic examination included assessing mortality, damage, motility, progression of development, and neutral red uptake by the larvae in comparison to a DMSO-control and standard anthelmintics. The anthelmintic effects were defined by the minimum effective concentration (“MEC”).

Haemonchus contortus [2] = assay: Efficacy against Haemonchus contortus in sheep; type: in vivo; details: single treatment 35 days after infection, necropsy 7 days after treatment
Description: Anthelmintic effects of compounds of this invention were tested in vivo using Haemonchus contortus in sheep. The sheep were orally infected with approximately 5,000 third-stage larvae of Haemonchus contortus. Thirty-five days after infection, the sheep in the treatment groups were treated once orally or subcutaneously at a dose of 2, 5, 10, and/or 50 mg per kg bodyweight. Seven days after treatment, the sheep were necropsied, and the worm burden in the abomasum was determined. The efficacy was defined as the reduction of the mean worm count in the infected sheep of the treatment groups in comparison to the infected sheep in the untreated negative control group.

Haemonchus contortus [3] = assay: Efficacy against Haemonchus contortus in jirds; type: in vivo, jirds (Meriones unguiculatus); details: single treatment 10 days after infection, necropsy 3 days after treatment
Description: Anthelmintic effects of compounds of this invention were tested in vivo using Haemonchus contuortus in jirds (Meriones unguiculatus). The jirds were orally infected with approximately 750-3,000 third-stage larvae of Haemonchus contortus. Ten days after infection, the jirds in the treatment groups were treated once orally or subcutaneously at a dose of 2, 10, and/or 50 mg per kg bodyweight. Three days after treatment, the jirds were necropsied, and the larvae burden in the stomach was determined. The efficacy was defined as the reduction of the mean larvae count in the jirds of the treatment groups in comparison to the infected jirds in the untreated negative control group. All the compounds of this invention tested using this protocol reduced the Haemonchus contortus count in both the oral and subcutaneous experiments.

[4] = test system: Trichostrongylus colubriformis; assay: Efficacy against Trichostrongylus colubriformis in cattle; type: in vivo; details: 10 mg/kg, oral, single treatment 32 days after infection, necropsy 7 days after treatment
Description: (§1) Anthelmintic effects of compounds of this invention were tested in vivo using Haemonchus contortus and Trichostrongylus colubriformis in cattle. The cattle were orally infected with approximately 10,000 third-stage larvae of Haemonchus contortus and approximately 30,000 third-stage larvae of Trichostrongylus colubriformis. Thirty-two days after infection, the cattle in the treatment group were treated once orally with the compound of Example 11 at a dose of 10 mg/kg bodyweight. Seven days after treatment, the cattle were necropsied, and the worm burden in the abomasum and the small intestine was determined. The efficacy was defined as the reduction of the mean worm count in the infected cattle of the treatment group in comparison to the infected cattle in the untreated negative control group.

Haemonchus contortus [5] = assay: Efficacy against Haemonchus contortus in cattle; type: in vivo; details: 10 mg/kg, oral, single treatment 32 days after infection, necropsy 7 days after treatment
Description: as §1

[6] = test system: Ascaridia galli (L3) and Oesophagostomum dentatum (L3 and L4); assay: In vitro anthelmintic activity against larval stages of Ascaridia galli and Oesophagostomum dentatum (MEC); details: Ascaridia galli, A. galli L3, O. dentatum L3 and L4, 20 larvae per well, microscopic examination
[7] = in vitro, read-out: minimum effective concentration (MEC) against one or more of the tested nematodes
[8] = in vitro, read-out: minimum effective concentration (MEC) against two or more of the tested nematodes
[9] = read-out: minimum effective concentration (MEC) against two or more of the tested nematodes, in vitro

Question: Which “activity against the resistant isolate compared with the sensitive isolate of Haemonchus contortus” value [1] does the source give for `CN(CC1CCN(c2ccc(C(F)(F)F)cc2)CC1)C(=O)[C@H]1CC[C@H](Nc2ccc([N+](=O)[O-])c(C(F)(F)F)c2)CC1` [Example 57, trans-N-methyl-4-(4-nitro-3-(trifluoromethyl)phenylamino)-N-((1-(4-(trifluoromethyl)phenyl)piperidin-4-yl)methyl)cyclohexanecarboxamide] here?
Answer: Its value is “same activity”.

Question: What about the “% Reduction in H. contortus count” value (Haemonchus contortus [2]; 10 mg/kg, oral) of the same compound?
Answer: Its value is 83%.

Question: What about the “% Reduction in H. contortus count” value (Haemonchus contortus [2]; 10 mg/kg, subcutaneous) of the same compound?
Answer: Its value is 0%.

Question: Which “% Reduction in H. contortus count” value (Haemonchus contortus [2]; 10 mg/kg, oral) does the source give for `CN(c1ccc([N+](=O)[O-])c(C(F)(F)F)c1)[C@H]1CC[C@H](OCC(=O)N2CCN(c3ccc(C(F)(F)F)cc3)CC2)CC1` [Example 12, 2-{trans-4-[methyl(4-nitro-3-trifluoromethyl-phenyl)-amino]-cyclohexyloxy}-1-[4-(4-trifluoromethyl-phenyl)-piperazin-1-yl]-ethanone] here?
Answer: Its value is 53%.

Question: And the “% Reduction in H. contortus count” value (Haemonchus contortus [2]; 10 mg/kg, subcutaneous)?
Answer: Its value is 0%.

Question: How did the “% Reduction in H. contortus count” value (Haemonchus contortus [3]; 2 mg/kg, oral) turn out when `O=C(CO[C@H]1CC[C@H](Nc2ccc([N+](=O)[O-])c(C(F)(F)F)c2)CC1)N1CCN(c2ccc(C(F)(F)F)cc2)CC1` [Example 11, 2-[trans-4-(4-nitro-3-trifluoromethyl-phenylamino)-cyclohexyloxy]-1-[4-(4-trifluoromethyl-phenyl)-piperazin-1-yl]-ethanone] was run?
Answer: Its value is 84%.

Question: What about the “% Reduction in H. contortus count” value (Haemonchus contortus [3]; 2 mg/kg, subcutaneous) of the same compound?
Answer: The value was 69%.

Question: And the “% Reduction in H. contortus count” value (Haemonchus contortus [3]; 50 mg/kg, oral)?
Answer: Its value is 98%.

Question: And the “% Reduction in H. contortus count” value (Haemonchus contortus [3]; 50 mg/kg, subcutaneous)?
Answer: Its value is 99%.

Question: And the “Efficacy against T. colubriformis (reduction of the mean worm count)” value [4]?
Answer: The value was 99%.

Question: What about the “Efficacy against H. contortus (reduction of the mean worm count)” value (Haemonchus contortus [5]) of the same compound?
Answer: The value was 98%.

Question: What about the “activity against the resistant isolate compared with the sensitive isolate of Haemonchus contortus” value [1] of the same compound?
Answer: Its value is “same activity”.

Question: And the “% Reduction in H. contortus count” value (Haemonchus contortus [2]; 2 mg/kg, oral)?
Answer: Its value is 0%.

Question: And the “% Reduction in H. contortus count” value (Haemonchus contortus [2]; 5 mg/kg, oral)?
Answer: Its value is 95%.

Question: What about the “% Reduction in H. contortus count” value (Haemonchus contortus [2]; 10 mg/kg, oral) of the same compound?
Answer: Its value is 100%.

Question: With `Cc1ccc(N2CCN(C(=S)COC3CCC(Nc4ccc([N+](=O)[O-])c(C(F)(F)F)c4)CC3)CC2)cc1` (centres unmarked) [Example 222] as the compound, how does the minimal effective concentration [6, 7] read?
Answer: The minimal effective concentration was under 1 µM.

Question: Which minimal effective concentration [6, 7] does the source give for `N#Cc1ccc(NC2CCC(OCC(=O)N3CCN(c4ccc(Cl)cc4)CC3)CC2)cc1C(F)(F)F` (centres unmarked) [Example 88] here?
Answer: The minimal effective concentration was under 1 µM.

Question: Which minimal effective concentration [6, 7] does the source give for `CN(CC1CCC(Nc2ccc([N+](=O)[O-])c(C(F)(F)F)c2)CC1)C(=O)C1CCN(c2ccc(C(F)(F)F)cc2)CC1` (centres unmarked) [Example 111] here?
Answer: The minimal effective concentration was under 1 µM.

Question: With `CC(C)(C)c1ccc(N2CCN(C(=O)COC3CCC(Nc4ccc(SC(F)(F)F)cc4)CC3)CC2)cc1` (centres unmarked) [Example 103] as the compound, how does the minimal effective concentration [6, 8] read?
Answer: The minimal effective concentration was under 1 µM.

Question: How did the minimal effective concentration [6, 8] turn out when `O=C(COC1CCC(Nc2ccc([N+](=O)[O-])c(C(F)(F)F)c2)CC1)N1CC2CN(c3ccc(Cl)cc3)CC2C1` (centres unmarked) [Example 262] was run?
Answer: The minimal effective concentration was under 1 µM.

Question: Which minimal effective concentration [6, 7] does the source give for `COc1cc(N[C@H]2CC[C@H](OCC(=O)N3CCN(c4ccc(C(F)(F)F)cc4)CC3)CC2)ccc1[N+](=O)[O-]` [Example 234] here?
Answer: Its minimal effective concentration is under 1 µM.

Question: For `CN(c1ccc([N+](=O)[O-])c(C(F)(F)F)c1)C1CCC(OCC(=S)N2CCN(c3ccc(C(F)(F)F)cc3)CC2)CC1` (centres unmarked) [Example 218], which minimal effective concentration [6, 9] is on record?
Answer: Its minimal effective concentration is under 1 µM.

Question: With `O=C(CO[C@H]1CC[C@H](Nc2ccc([N+](=O)[O-])c(C(F)(F)F)c2)CC1)N1CCC(c2ccc(F)cc2F)CC1` [Example 22, 1-[4-(2,4-difluoro-phenyl)-piperidin-1-yl]-2-[trans-4-(4-nitro-3-trifluoromethyl-phenylamino)-cyclohexyloxy]-ethanone] as the compound, how does the minimal effective concentration [6, 9] read?
Answer: The minimal effective concentration was under 1 µM.

Question: Which minimal effective concentration [6, 8] does the source give for `COc1cc(N[C@H]2CC[C@H](OCC(=O)N3CCN(c4ccc(C(C)(C)C)cc4)CC3)CC2)ccc1[N+](=O)[O-]` [Example 249] here?
Answer: The minimal effective concentration was under 1 µM.

Question: With `O=C(COC1CCC(Nc2ccc([N+](=O)[O-])c(C(F)(F)F)c2)CC1)N1CCCN(c2ccc(C(F)(F)F)cc2)CC1` (centres unmarked) [Example 149] as the compound, how does the minimal effective concentration [6, 7] read?
Answer: Its minimal effective concentration is under 1 µM.

Question: And the minimal effective concentration [6, 8]?
Answer: Its minimal effective concentration is under 1 µM.
